Laboratory results taken from US12071477B2, “Anti-folate receptor alpha antibody conjugated with hemiasterlins” (SUTRO BIOPHARMA, INC., priority 2017, dated 2024).
Numbering of substitutions follows the chain as printed. Square brackets hold non-standard residues; d marks the D form. Peptide text beside a SMILES is read from it. * marks the point of attachment. Dolaproine = CO[C@@H]([C@@H]1CCCN1)[C@@H](C)C(=O)O; Dil = CC[C@H](C)[C@H](NC)[C@@H](CC(=O)O)OC; X1 = C[C@@H](N*)[C@@H](O)c1ccccc1; NMeV = CN[C@H](C(=O)O)C(C)C

How the values were obtained:
[1] = test system: MES-SA/MX2 cells (P-glycoprotein); assay: Free drug cell killing on PgP overexpressing MES-SA/MX2 cells with or without PgP inhibitor GF120918; assay type: cell-based
Source text: (§1) To evaluate if free drug (I) is specifically a substrate of P-glycoprotein (PgP), which is responsible for cisplatin-resistance in some of the ovarian cancer cell lines (Stordal et al. 2012. PLoS One 7(7)), the free drug cell killing activities were investigated on PgP overexpressing MES-SA/MX2 cell line and the parental MES-SA cells. The cell killing activity of free drug (I), free drug (II) and a control free drug (MMAE, designated “III”) on the PgP-overexpressing MES-SA/MX2 cells were reduced by different levels compared to their activity on parental MES-SA cells. The MES-SA/MX2 cells were also treated with PgP inhibitor GF120918 (5 μM) to further investigate if the observed cell killing reduction is contributed by the presence of PgP on the cell surface.

[2] = Body weight change in rats given free drugs; assay type: in vivo, rat; settings: free drug (I): two doses (0.4, 1 mg/kg); free drug (II): 0.4 mg/kg
[3] = Pharmacokinetic profile of free drugs in Sprague-Dawley rats; assay type: in vivo, rat
Procedure: To assess the pharmacokinetic profile of free drug (I), female Sprague-Dawley rats (mean body weight 250 g) were given either a 0.4 mg/kg or 1 mg/kg dose by IV bolus administration (N═three animal per dose level) via an indwelling jugular vein catheter. Blood samples were collected at […], 1, 2, 8, 24, 32, 48, and 72 hour post-dose. Levels of free drug (I) and (II) were measured by LC-MS/MS and non-compartmental pharmacokinetic analysis was conducted using Phoenix WinNonlin Version 6.4 (Pharsight Corporation). The PK of free drug (I) could not be estimated due to the fact that concentrations of (I) increased from 2 to 8 hours and were undetectable thereafter.

[4] = test system: cell lines tested (Igrov1, A549 and others); assay: In vitro cytotoxic activity of free drugs, various cell lines; assay type: cell-based; settings: in vitro cytotoxicity studies
[5] = test system: MES-SA cells; assay: Free drug cell killing on parental MES-SA cells; assay type: cell-based; settings: Homo sapiens, MEA-SA, No GF120918
Source text: as §1

[6] = test system: MC38-hFolRα tumors; assay: MC38-hFolRα tumor model, combination with Avelumab; assay type: in vivo; settings: ADC Molecule 4 10 or 15 mg/kg once IV; Avelumab q3dx3
Source text: Results are illustrated in FIGS. 24 and 25.

[7] = test system: FOLR1-positive Igrov1 cells; assay: Secondary antibody cell killing assay (anti-human Fc nanobody-hemiasterlin) on Igrov1 cells; assay type: cell-based; settings: humanized 6D1 (2060) antibodies
Procedure: The internalization of the antibodies was evaluated by a secondary antibody cell killing assay on target positive cells. FOLR1-positive KB cells were obtained from ATCC, and FOLR1-positive Igrov1 cells were obtained from NIH. The cells were maintained in Ham's F-12: high glucose DMEM (50:50) (Corning, Cellgro-Mediatech) supplemented with 10% heat-inactivated fetal bovine serum (Corning, Cellgro-Mediatech, Manassas, Virginia), 1% Penicillin/Streptomycin (Corning, Cellgro-Mediatech, Manassas, Virginia) and 2 mmol/L-glutamax (Thermo Fisher Scientific, Waltham, Massachusetts). Adherent cells were washed twice with calcium and magnesium-free Hanks Balanced Salt Solution (HBSS), harvested with HYQ® TASE™ (Hyclone; Thermo Fisher Scientific, Waltham, Massachusetts) and counted by the Vi-CELL Cell Viability Analyzers (Beckman Coulter, Indianapolis, Indiana). A total of 625 cells were seeded in each well of a 384-well flat bottom white polystyrene plate. Lead antibodies were formulated at 4-fold starting concentration in the cell culture medium and filtered through Multi ScreenHTS 96-Well Filter Plates (Millipore; Billerica, Massachusetts). […] Assay plates were cultured at 37° C. in a CO2 incubator for 120 hrs before assay. For cell viability measurement, 30 μL of Cell Titer-Glog reagent (Promega Corp. Madison, WI) was added into each well, and plates were processed as per product instructions. Relative luminescence was measured on an ENVISION® plate reader (Perkin-Elmer; Waltham, MA). Relative luminescence readings were converted to percent viability using untreated cells as controls. Data was fitted with nonlinear regression analysis, using a log(inhibitor) vs. response-variable slope, 4 parameter fit with GraphPad Prism (GraphPad v 5.0, Software; San Diego, California). Data was expressed as relative cell viability (ATP content) % vs. dose of antibody.

[8] = molecular target: T1, human FOLR1-H1S (Homo sapiens, UniProt P15328); assay: Biacore affinity and kinetic binding analysis; settings: humanized 6D1 (2060) antibodies
T1 construct: His (printed 'H1S', read as a misprint of HIS)
Procedure: Anti-Fc polyclonal antibodies were immobilized onto a CM5 chip (GE Life Sciences) using amine coupling chemistry (from Amine Coupling Kit, GE Life Sciences). The immobilization steps were carried out at a flow rate of 25 μL/min in 1×HBS-EP+buffer (GE Life Sciences; 10× Stock diluted before use). The sensor surfaces were activated for 7 min with a mixture of N-hydroxysuccinimide (NHS, 0.05 M) and 1-ethyl-3-(3-dimethylaminopropyl)-carbodiimide (EDC, 0.2 M). The anti-Fc polyclonal antibodies were injected over all 4 flow cells at a concentration of 25 μg/mL in 10 mM sodium acetate, pH 4.5, for 7 min. Ethanolamine (1 M, pH 8.5) was injected for 7 min to block any remaining activated groups. An average of 12,000 response units (RU) of capture antibody was immobilized on each flow cell.
Off-rate and kinetic binding experiments were performed at 25° C. using 1×HBS-EP+ buffer. Test and control antibodies were injected over the anti-Fc surface at concentrations of 5-10 μg/mL for 12 seconds at a flow rate of 10 μL/min on flow cells 2, 3 and 4, followed by a buffer wash for 30 seconds at the same flow rate. Kinetic characterization of antibody samples was carried out with a single concentration of antigen (for off-rate ranking) or a 1:2 dilution series of antigen (for kinetic characterization) and 1 injection of 0 nM antigen. […] Between each ligand capture and analyte binding cycle, regeneration was carried out using 2 injections of 10 mM glycine pH 2.0 for 30 seconds at 30 μL/min, followed by a 30 second buffer wash step.
The data were fit with the Biacore T200 Evaluation software, using a 1:1 Langmuir binding model. KD (affinity, nM) was determined as a ratio of the kinetic rate constants calculated from the fits of the association and dissociation phases.

[9] = MEA-SA/MX2, GF120918 (5 μM PgP inhibitor)

T1 sequence (P15328 25-234 limits assumed): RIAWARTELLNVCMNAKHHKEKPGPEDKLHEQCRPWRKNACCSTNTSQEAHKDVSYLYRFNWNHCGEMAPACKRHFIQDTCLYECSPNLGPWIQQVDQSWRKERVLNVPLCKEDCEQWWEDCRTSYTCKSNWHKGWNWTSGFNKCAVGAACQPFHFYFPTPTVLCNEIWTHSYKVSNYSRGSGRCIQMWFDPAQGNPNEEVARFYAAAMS

For `CN[C@H](C(=O)N[C@H](C(=O)N(C)[C@H](/C=C(\C)C(=O)O)C(C)C)C(C)(C)C)C(C)(C)c1cccc(N)c1` [free drug (I)], the EC50 [1, 9] was 6.4 nM, the EC50 ([1]; MEA-SA/MX2, No GF120918) was 50 nM and the Span ([1]; MEA-SA/MX2, No GF120918) was 100%. The “effect on body weight” value [2] was “did not have an effect on the body weight”, the “plasma level post dose” value ([3]; 0.4 or 1 mg/kg IV bolus) was “undetectable at 24 hours post dose” and the “PK of free drug (I) in rat vs. free drug (II)” value ([3]; rat) was “Free drug (I) has faster clearance”. The “cytotoxic activity of released free drugs, comparison” value [4] was “comparable cytotoxic activity”.

With `COc1cc2cc(c1Cl)N(C)C(=O)C[C@H](OC(=O)[C@H](C)N(C)C(=O)CCC(C)(C)S)[C@]1(C)O[C@H]1[C@H](C)[C@@H]1C[C@@](O)(NC(=O)O1)[C@H](OC)/C=C/C=C(/C)C2` [free drug (II)] the EC50 [1, 9] was 1.7 nM, the EC50 ([1]; MEA-SA/MX2, No GF120918) was 28 nM and the Span ([1]; MEA-SA/MX2, No GF120918) was 100%. The “effect on body weight” value [2] was “progressive body weight loss” and the “cytotoxic activity of released free drugs, comparison” value [4] was “comparable cytotoxic activity”.

`CC[C@H](C)[C@@H]([C@@H](CC(=O)N1CCC[C@H]1[C@H](OC)[C@@H](C)C(=O)N[C@H](C)[C@@H](O)c1ccccc1)OC)N(C)C(=O)[C@@H](NC(=O)[C@@H](NC)C(C)C)C(C)C` [free drug (III), monomethyl auristatin E] (H-[NMeV]V[Dil][Dolaproine]-X1; N-terminus and C-terminus assumed) gave an EC50 [1, 9] of 1 nM, an EC50 ([1]; MEA-SA/MX2, No GF120918) of 111 nM and an EC50 [5] of 0.75 nM.

For “Avelumab: PD-L1 inhibitor Avelumab (clinical grade) [reference compound]”, the initial tumor response [6] was “tumor stasis until approximately day 7”.

B1: SRP2060-A06 (antibody, V domains shown)
VH: EVQLLESGGGLVQPGGSLRLSCAFSGFSLSTFGMGVGWVRQAPGKGLEWVGHIWWDDDKYYYPALKGRFTISKDNSKNTVYLQMNSLRAEDTAVYYCGRNHFPHYYGSSHWYFDVWGQGTTVTVSS
VL: DIQMTQSPSTLSASVGDRVTITCKASQDINSYLSWYQQKPGKAPKLLIYRANRLVDGVPSRFSGSGSGTEFTLTISSLQPDDFATYYCLQYDEFPYTFGGGTKVEIK
modifications: drug conjugate; Synthetic SRP2060-A06, VH; Synthetic H6D1-LC5, VL
With B1 the “Igrov 2° Antibody Cell Killing, Nb-SC239 span” value (“Igrov 2° Antibody Cell Killing” for short) [7] was 66%.

B2: SRP2060-B01 (antibody, V domains shown)
VH: B1 VH with F24L, P43T, G51S, Y62H, Y81H, D114N
VL: B1 VL
modifications: drug conjugate; Synthetic SRP2060-B01, VH; Synthetic H6D1-LC5, VL
With B2 the “Igrov 2° Antibody Cell Killing” value [7] was 76%.

B3: SRP2060-E05: affinity-matured humanized 6D1 antibody, VH SEQ ID NO 364, VL H6D1-LC4 (antibody, V domains shown)
VH: B1 VH with G51S, Y62H, I71V, D114N
VL: EIVMTQSPATLSLSPGERATLSCKASQDINSYLSWYQQKPGQAPRLLIYRANRLVDGIPARFSGSGSGTDYTLTISSLEPEDFAVYYCLQYDEFPYTFGGGTKVEIK
modifications: drug conjugate; Synthetic SRP2060-E05, VH; Synthetic H6D1-LC4, VL
For B3, the “Igrov 2° Antibody Cell Killing” value [7] was 71%, the Biacore kinetics ka [8] was 541000 M⁻¹ s⁻¹ and the Biacore kinetics kd [8] was 0.00158 s⁻¹.

B4: SRP2060-E10: affinity-matured humanized 6D1 antibody, VH SEQ ID NO 363, VL H6D1-LC4 (antibody, V domains shown)
VH: B1 VH with G51S, Y62H, D114N
VL: B3 VL
modifications: drug conjugate; Synthetic SRP2060-E10, VH; Synthetic H6D1-LC4, VL
With B4 the “Igrov 2° Antibody Cell Killing” value [7] was 68%, the Biacore kinetics ka [8] was 582000 M⁻¹ s⁻¹ and the Biacore kinetics kd [8] was 0.0012 s⁻¹.
